≈ marks a conversion by molar mass, not a printed value. Read-outs that look alike come from different tables or passages of the source.
Key:
Format in all cases: cell-based
[1] = test system: Acinetobacter baumannii DSM 30008; test: MIC serial dilution assay; design: key: (-): No inhibition; conditions: Acinetobacter baumanii, starting concentration 66.7 μg/mL
Method: (§1) The Minimum Inhibitory Concentration (MIC) of the isolated metabolites (1–8) was evaluated using serial dilution assays in a 96-well microtiter plate against a panel of Gram-positive bacteria, namely Bacillus subtilis DSM 10, Mycobacterium smegmatis ATCC 700084 and Staphylococcus aureus DSM 346; Gram-negative bacteria, including Acinetobacter baumannii DSM 30008, Chromobacterium violaceum DSM 30191, Escherichia coli DSM 1116 and Pseudomonas aeruginosa PA14 and fungal cultures of Candida albicans DSM 1665, Mucor hiemalis DSM 2656, Rhodotorula glutinis DSM 10134, Schizosaccharomyces pombe DSM 70572 and Wickerhamomyces anomalus DSM 6766, according to previously described protocols. The MTT-based cytotoxicity assay was performed against several cancer cell lines (human endocervical adenocarcinoma KB 3.1, mouse fibroblasts L929, squamous cancer A431, breast cancer MCF-7, lung cancer A549, ovary cancer SK-OV-3, and prostate cancer PC-3) in accordance with our previously established protocols.

[2] = test system: Bacillus subtilis DSM 10; test: MIC serial dilution assay; design: key: (-): No inhibition
Method: as §1

[3] = test system: Candida albicans DSM 1665; test: MIC serial dilution assay; design: key: (-): No inhibition; conditions: starting concentration 66.7 μg/mL
Method: as §1

[4] = test system: Chromobacterium violaceum DSM 30191; test: MIC serial dilution assay; design: key: (-): No inhibition; conditions: starting concentration 66.7 μg/mL
Method: as §1

[5] = test system: Escherichia coli DSM 1116; test: MIC serial dilution assay; design: key: (-): No inhibition; conditions: starting concentration 66.7 μg/mL
Method: as §1

[6] = test system: Mucor hiemalis DSM 2656; test: MIC serial dilution assay; design: key: (-): No inhibition
Method: as §1

[7] = test system: Mycobacterium smegmatis ATCC 700084; test: MIC serial dilution assay; design: key: (-): No inhibition; conditions: starting concentration 66.7 μg/mL
Method: as §1

[8] = test system: Pseudomonas aeruginosa PA14; test: MIC serial dilution assay; design: key: (-): No inhibition; conditions: starting concentration 66.7 μg/mL
Method: as §1

[9] = test system: Rhodotorula glutinis DSM 10134; test: MIC serial dilution assay; design: key: (-): No inhibition; conditions: Rhodoturula glutinis, starting concentration 66.7 μg/mL
Method: as §1

[10] = test system: Schizosaccharomyces pombe DSM 70572; test: MIC serial dilution assay; design: key: (-): No inhibition
Method: as §1

[11] = test system: Staphylococcus aureus DSM 346; test: MIC serial dilution assay; design: key: (-): No inhibition
Method: as §1

[12] = test system: Wickerhamomyces anomalus DSM 6766; test: MIC serial dilution assay; design: key: (-): No inhibition
Method: as §1

[13] = test system: human endocervical adenocarcinoma KB 3.1; test: MTT-based cytotoxicity assay; conditions: KB3.1, starting concentration 37 µg/mL
Method: as §1

[14] = test system: mouse fibroblasts L929; test: MTT-based cytotoxicity assay; conditions: Mus musculus, starting concentration 37 µg/mL, read-out: IC50
Method: as §1

[15] = test system: panel of bacteria and fungi; test: Antimicrobial serial dilution assay, whole panel; conditions: result in words
Method: as §1

[16] = test system: mammalian cell lines; test: cells
Method: as §1

[17] = test system: breast cancer MCF-7; test: MTT-based cytotoxicity assay; conditions: Homo sapiens, MCF7; MCF-7; starting concentration 37 µg/mL; read-out: IC50
Method: as §1

[18] = test system: lung cancer A549; test: MTT-based cytotoxicity assay; conditions: Homo sapiens, starting concentration 37 µg/mL, read-out: IC50
Method: as §1

[19] = test system: ovary cancer SK-OV-3; test: MTT-based cytotoxicity assay; conditions: Homo sapiens, SK-OV-3; SKOV-3; starting concentration 37 µg/mL; read-out: IC50
Method: as §1

[20] = test system: prostate cancer PC-3; test: MTT-based cytotoxicity assay; conditions: PC-3; starting concentration 37 µg/mL; read-out: IC50
Method: as §1

[21] = test system: squamous cancer A431; test: MTT-based cytotoxicity assay; conditions: Homo sapiens, A-431; A431; starting concentration 37 µg/mL; read-out: IC50
Method: as §1

[22] = DSM10, starting concentration 66.7 μg/mL, read-out: MIC
[23] = DSM2656, starting concentration 66.7 μg/mL, read-out: MIC
[24] = starting concentration 66.7 μg/mL
[25] = DSM346, starting concentration 66.7 μg/mL, read-out: MIC
[26] = Homo sapiens, KB 3-1, read-out: IC50
[27] = Rhodotorula glutinis, DSM10134, read-out: MIC
[28] = DSM70572, starting concentration 66.7 μg/mL, read-out: MIC

| MIC [1] | MIC [2, 22] | MIC [3] | MIC [4] | MIC [5] | MIC [6, 23] | MIC [7] | MIC [8] | MIC [9] | MIC [10, 24] | MIC [11, 25] | MIC [12, 24] | MIC [9, 27] | MIC [10, 28] | SMILES | IC50 [13, 26] | IC50 [14] | further results |
| --- | --- | --- | --- | --- | --- | --- | --- | --- | --- | --- | --- | --- | --- | --- | --- | --- | --- |
| - |  | - | - | - |  | - | - | - | - |  | - |  |  | CC(C)=CCc1ccc(O)c2c1C(O)(c1cc(C)cc3c1OC(C(C)(C)O)CO3)OC2=O (centres unmarked) [Compound 2, isoprenylisobenzofuran B] | > 84 µM | > 84 µM | MIC [2, 24]: -; MIC [6, 24]: -; MIC [11, 24]: -; IC50 [13]: slight inhibition; antimicrobial activity against the tested microorganisms [15]: no activity |
| - | 66.6 µg/mL (≈ 152 µM) | - | - | - | 33.3 µg/mL (≈ 75.8 µM) | - | - |  |  | 66.6 µg/mL (≈ 152 µM) | - | 33.3 µg/mL (≈ 75.8 µM) | 33.3 µg/mL (≈ 75.8 µM) | CC(C)=CCc1ccc(O)c2c1C(O)(c1cc(C)cc3c1O[C@H](C(C)(C)O)CO3)NC2=O (some centres unmarked) [Compound 4, diaporisoindole F1/F2] | 31.9 µM | 59.2 µM |  |

Further lines, the molecule ahead of its results:

| SMILES | MIC [1] | MIC [2, 22] | MIC [3] | MIC [4] | MIC [5] | MIC [6, 23] | MIC [7] | MIC [8] | MIC [9] | MIC [10, 24] | MIC [11, 25] | MIC [12, 24] | MIC [9, 27] | MIC [10, 28] | IC50 [13, 26] | IC50 [14] | further results |
| --- | --- | --- | --- | --- | --- | --- | --- | --- | --- | --- | --- | --- | --- | --- | --- | --- | --- |
| CC(C)=CCc1ccc(O)c2c1C(O)(c1cc(C)cc3c1O[C@H](C(C)(C)O)CO3)OC2 (mixture of isomers) [Compound 3, isoprenylisobenzofuran C1/C2] | - | 33.3 µg/mL | - | - | - | 66.6 µg/mL | - | - | - | - | 33.3 µg/mL | - |  |  | 32.9 µM | 51.6 µM |  |
| CC(C)=CCc1ccc(O)c2c1C(c1cc(C)cc3c1O[C@H](C(C)(C)O)CO3)NC2=O (mixture of isomers) [Compound 5, diaporisoindole A/B] | - | 66.6 µg/mL | - | - | - | 66.6 µg/mL | - | - |  |  | 66.6 µg/mL | - | 66.6 µg/mL | 33.3 µg/mL | 22 µM | 54.4 µM |  |
| O=C(O)c1cn(C2CC2)c2cc(N3CCNCC3)c(F)cc2c1=O [Ciprobay, reference compound] |  |  |  |  |  |  |  |  |  |  |  |  |  |  |  |  | MIC ([1]; Acinetobacter baumannii, DSM30008, read-out: MIC): 0.26 µg/mL (≈ 0.785 µM) |
| CCC(C)C1OC(=O)CNC(=O)CNC(=O)[C@H]([C@@H](C)O)NC(=O)C(C)C(O)CC(O)CC/C=C/C1C (some centres unmarked) [Compound 1, eucalactam B] | - |  | - | - | - |  | - | - | - | - |  | - |  |  | > 72 µM | > 72 µM | MIC [2, 24]: -; MIC [6, 24]: -; MIC [11, 24]: -; antimicrobial activity against the tested microorganisms [15]: devoid of any activity; cytotoxic effect ([16]; mammalian cell lines, result in words): did not show any cytotoxic effect |
| CC(C)=CCc1ccc(O)c(C=O)c1C(=O)c1cc(C)cc2c1OC(C(C)(C)O)CO2 (centres unmarked) [Compound 6, tenellone B] | - | 16.6 µg/mL (≈ 39.1 µM) | - | - | - | 16.6 µg/mL (≈ 39.1 µM) | - | - |  |  | 16.6 µg/mL (≈ 39.1 µM) |  | 16.6 µg/mL (≈ 39.1 µM) | 66.6 µg/mL (≈ 157 µM) | 20 µM | 49.5 µM | MIC ([12]; Hansenula anomala, DSM6766, starting concentration 66.7 μg/mL, read-out: MIC): 66.6 µg/mL (≈ 157 µM); IC50 [17]: 17.7 µM; IC50 [18]: 20.8 µM; IC50 [19]: 42.5 µM; IC50 [20]: 17.9 µM; IC50 [21]: 19.3 µM; IC50 ([16]; A431, MCF-7, A549, SKOV-3 and PC-3, read-out: IC50, range over five other mammalian cell lines): 17.7 to 42.5 µM |

Source: paper PMC10381184, “Unprecedented Antimicrobial and Cytotoxic Polyketides from Cultures of Diaporthe africana sp. nov” (Journal of Fungi, 2023)
